Measurements as given in patent publication US20090029966A1, “COMBINATION THERAPY WITH PARP INHIBITORS” (ABBOTT LABORATORIES, priority 2006, published 2009).

Columns and labels:
[1] = test system: MX-1 breast carcinoma xenograft; assay: MX-1 breast carcinoma xenograft, combination with carboplatin; format: in vivo, scid mice
Description: The MX-1 breast carcinoma xenograft model in scid mice was used to test the ability of A-861695 to potentiate the efficacy of platinum-based agents. This cell line was derived from a person with a poorly differentiated mammary carcinoma. MX-1 is sensitive to cytotoxic agents. Carboplatin, a second-generation platinum containing anticancer drug, is currently the standard of care for treating lung, ovarian, and head and neck cancers. MX-1 tumors are sensitive to carboplatin. […] Mice were randomized into treatment groups of 8-10 mice per group. […] A-861695 was administered at 25 mg/kg/day s.c., via 14-day osmotic minipumps (OMPs) starting on day 17. Carboplatin was given i.p., on day 20, 24 and 27.

[2] = test system: intra-cerebellar medulloblastoma xenographs; HSB T-cell ALL; JM1 pre-B ALL; P115 primary AML cells; assay: TMZ and ABT-888 combinations in medulloblastoma xenografts and leukemia cells (FIGS. 7-11); format: in vivo, mice; conditions: differing amounts of TMZ and ABT-888 combinations
[3] = test system: B16F10 murine melanoma; assay: B16F10 murine melanoma, combination with TMZ; format: in vivo, C57BL/6 mice; conditions: A-861695 25, 12.5 or 3.1 mg/kg/day p.o. b.i.d. days 1-14 + TMZ 62.5 mg/kg/day p.o. q.d. x5
Method: This study was done on mice with B 16F 10 murine melanoma. Mice were divided into six treatment groups with 8-10 mice per group. See figure two for treatment groups. B16F10 cells were injected s.c. into C57BL/6 mice on day 0. Dosing was initiated on day one. A-861695 was administered p.o., b.i.d. on days 1-14. On days 3-7 temozolomide (TMZ) was administered p.o., q.d. (for the groups receiving both TMZ and A-861695, TMZ was given two hours after the A-861695 was administered).

[4] = test system: DoHH-2 cells; assay: B-cell lymphoma (DoHH-2 cell) flank xenograft; conditions: for Mean Tumor Volume Day 27 mm^3 ± SE: ABT-888 25 mg/kg/day PO BID 7 days, Temozolomide 50 mg/kg/day PO QD 5 days, tumor size at start 503 mm^3; for % T/C Day 28 (dosing 11 days): treatment group/corresponding vehicle group x 100
Method: Animals were size matched on day 15 to an approximate tumor volume of 503 mm^3.
Group mouse weights were recorded three times a week to monitor for weight loss due to toxicity or excessive tumor burden.

[5] = test system: MX-1 breast carcinoma xenograft; assay: MX-1 breast carcinoma xenograft, combination with cisplatin; format: in vivo, nude mice
Method: In this study the efficacy of A-861695 in combination with cisplatin was evaluated in the MX-1 breast carcinoma xenograft model in nude mice. Tumors were size-matched to 100 mm^3 on day 16 and PARP inhibitor therapy (p.o., b.i.d. ×8) was initiated the same day. A single dose of cisplatin at 6.0 mg/kg/day was administered i.p. day 18. Data, shown in FIG. 5, are mean±S.E.M. of 9 mice per treatment group.

[6] = test system: 9 L orthotopic gliosarcoma; assay: 9L orthotopic gliosarcoma, combination with TMZ; format: in vivo, Fisher 344 rats
Method: Tumor growth was monitored longitudinally using contrast-enhanced magnetic resonance imaging (MRI). Animal survival was evaluated based on humane euthanasia of rats presenting signs of irreversible illness.

[7] = test system: tumor; assay: Valproic acid and radiotherapy (FIG. 6); format: in vivo; conditions: single and combined administration of valproic acid and radiotherapy
[8] = test system: HCT-116 tumors; assay: HCT-116 tumors in nude mice, combination with radiotherapy; format: in vivo; conditions: 6.25, 12.5 or 25 mg/kg/day i.p. OMP 14 days + radiation 2 Gy/day x 10 doses; compared to radiotherapy or compound alone
Method: This study was done in nude mice bearing HCT-116 tumors in the leg. Three days (−3) prior to the beginning of radiotherapy, mice were implanted i.p with OMPs delivering A-620223 at 0, 6.25, 12.5, or 25 mg/kg/day for 14 days. Starting day 0 mice received radiation treatment (2 Gy/day) for 10 doses alone or in combination with the 3 different doses of 2-(N-propylpiperidin-4-yl)benzimidazole-4-carboxamide.

[9] = test system: MDA-231-LN-luc cells
[10] = test system: PC3M-Luc human prostate carcinoma; assay: Orthotopic PC3M-Luc human prostate carcinoma model (BLI); format: in vivo, male SCID-C.B17 mice; conditions: TMZ 50 mg/kg/day alone or with ABT-888 25 mg/kg/day
Method: Bioluminescent PC-3M-luciferase-C6 osteolytic human prostate cancer cells, constitutively expressing luciferase (Caliper Life Sciences, Hopkinton, Mass.) were orthotopically injected into the prostates of ˜10-week-old male SCID-C.B17 mice (C.B-17/IcrCrl-scid-BR, Charles River Labs). Mice were housed in a facility with constant humidity, temperature and a 12-h light-dark cycle. Mice were anesthetized with intramuscular injections of ketamine (40 mg/kg) and rompum (5 mg/kg) before surgery. The surgical region was shaved and sterilized with iodine and alcohol swabs. A lower midline incision was made to access the prostate. The left lobe of the dorsal prostate was injected with 1×10^6 PC3M-Luc cells (975 photon/second/cell) in 30 μl (1:1 matrigel, Collaborative Biomedical Products, Bedford, Mass.). The peritoneal cavity was closed with 4-0 suture and skin incision was closed with clip.
In vivo bioluminescent image (BLI) was performed with an IVISR Imaging System (Caliper Life Sciences, Hopkinton, Mass.). […] Images and measurements of bioluminescent signals were acquired and analyzed using Living Image® software (Caliper Life Sciences, Hopkinton, Mass.). Uniform region of interests (ROIs) were used across all groups and time points to achieve quantification of bioluminescent signal. […] The mice were then monitored with this system at weekly intervals. […]

[11] = TMZ 50 PO q.d x 5, ABT-888/TMZ 25/50 mg/kg/day po b.i.d./po q.d., normalized BLI post size match

## C[C@]1(c2nc3c(C(N)=O)cccc3[nH]2)CCCN1 [ABT-888, 2-[(2R)-2-methylpyrrolidin-2-yl]-1H-benzimidazole-4-carboxamide]
[1]; A-861695 25 mg/kg/day s.c. OMP 14 days + carboplatin 10 and 15 mg/kg/day
  potentiation of carboplatin (tumor volumes, FIG. 4): pronounced potentiation of carboplatin
Compared to other PARP inhibitors
  bioavailability in brain tissue: improved bioavailability in brain tissue
rat, in vivo
  blood brain barrier: crosses the blood brain barrier
[2]
  effect on toxicity of TMZ (FIGS. 7-11): enhancement of toxicity of TMZ
[3]
  potentiation of TMZ efficacy (FIG. 2): significantly potentates the TMZ efficacy in a dose dependent manner
[4]
  Mean Tumor Volume Day 27 mm^3 ± SE: 2970 ± 410 mm^3
  % T/C Day 28 (dosing 11 days): 127 (—) %
[4]; toxicity assessment in Scid female mice
  Observations: None
[5]; A-861695 5 mg/kg/day p.o. b.i.d. x8 + cisplatin 6.0 mg/kg/day i.p. day 18
  cures (no measurable tumors at end of the trial): 8/9
[5]; A-861695 25 mg/kg/day p.o. b.i.d. x8 + cisplatin 6.0 mg/kg/day i.p. day 18
  cures (no measurable tumors at end of the trial): 8/9
[5]; A-861695 50 mg/kg/day p.o. b.i.d. x8 + cisplatin 6.0 mg/kg/day i.p. day 18
  cures (no measurable tumors at end of the trial): 6/9
[5]; dose-response 5, 25, 50 mg/kg/day
  dose at which maximal potentiation of cisplatin was reached: 5 mg/kg/day
[6]; A-861695 50 mg/kg/day + TMZ 17.5 mg/kg/day, day 14, p<0.005
  tumor volume reduction better than TMZ alone: 44%
[6]; A-861695 50 mg/kg/day p.o. b.i.d. in combination with TMZ 17.5 mg/kg/day p.o. q.d., MRI
  reduction of tumor volume (day 14): 63%
[6]; A-861695 18 or 50 mg/kg/day with TMZ, p<0.005 Log-rank test
  animal survival: significantly prolonged animal survival

## N.N.O=C([O-])C1(C(=O)[O-])CCC1.[Pt+2] [carboplatin, reference compound]
[1]; carboplatin 5, 10, 15 mg/kg/day i.p. day 20, 24, 27
  tumor inhibition as a single agent (FIG. 4): dose-dependent tumor inhibition

## N.N.[Cl][Pt][Cl] [cisplatin, reference compound]
[5]; cisplatin monotherapy 6.0 mg/kg/day i.p. day 18
  cures (no measurable tumors at end of the trial): 3/9

## CCCC(CCC)C(=O)O [valproic acid]
[7]
  effect on radiotherapy (FIG. 6): can enhance the effects of radiotherapy

## CCCN1CCC(c2nc3cccc(C(N)=O)c3[nH]2)CC1 [2-(N-propylpiperidin-4-yl)benzimidazole-4-carboxamide]
[8]
  reduction of tumor size in combination with radiotherapy (FIG. 1): significant improvement in the reduction of tumor size

## Cn1nnc2c(C(N)=O)ncn2c1=O [TMZ, temozolomide]
[9]; [11]
  Day 12 % Tumor change (BLI): 66 ± 76%
  Day 30 % Tumor change (BLI): 1217 ± 560%
[9]; after last dose of 2nd cycle
  Weight loss (Observations): >10% after last
[9]; three cycles of 5 days with 11 days of rest, n=11
  Mortality: 0/11
[10]
  efficacy after second treatment schedule (day 55): no efficacy
[4]
  Mean Tumor Volume Day 27 mm^3 ± SE: 2202 ± 253 mm^3
  % T/C Day 28 (dosing 11 days): 94%
[4]; tumor growth inhibition vs vehicle
  % TGI Day 28 (dosing 11 days): 6%
